Measured values as given in the supplement of paper PMC10307832.

Assays:
Experiment in all cases: relative viability (nuclei count vs DMSO), 5 days (fraction); higher = more cells survive
EKVX = tested on: EKVX
Outline: (§1)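 One day after seeding in 1536-well plates, lung cancer cell lines were dosed by pin tool. Dosing was either single-drug or a fixed anchor-drug dose plus five library-drug doses (not always all listed) in √10 steps. After 5 days, nuclei were stained in one fix-and-stain step and counted on 4× images, and relative viability is the nuclei count of treated wells over that of vehicle wells, given as the median of duplicate plates.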

HARA = tested on: HARA
Outline: as §1

HOP-62 = tested on: HOP-62
Outline: as §1

NCI-H1355 = tested on: NCI-H1355
Outline: as §1

NCI-H1395 = tested on: NCI-H1395
Outline: as §1

NCI-H1734 = tested on: NCI-H1734
Outline: as §1

NCI-H1755 = tested on: NCI-H1755
Outline: as §1

NCI-H1793 = tested on: NCI-H1793
Outline: as §1

NCI-H1993 = tested on: NCI-H1993
Outline: as §1

NCI-H2170 = tested on: NCI-H2170
Outline: as §1

NCI-H2342 = tested on: NCI-H2342
Outline: as §1

NCI-H2347 = tested on: NCI-H2347
Outline: as §1

NCI-H322M = tested on: NCI-H322M
Outline: as §1

NCI-H358 = tested on: NCI-H358
Outline: as §1

NCI-H522 = tested on: NCI-H522
Outline: as §1

NCI-H647 = tested on: NCI-H647
Outline: as §1

NCI-H838 = tested on: NCI-H838
Outline: as §1

PC-14 = tested on: PC-14
Outline: as §1

Clc1ccc(Nc2nnc(Cc3ccncc3)c3ccccc23)cc1 [Vatalanib] + NC(=O)Nc1cc(-c2cccc(F)c2)sc1C(=O)N[C@H]1CCCNC1 [AZD7762] (partner 0.2 µM)
relative viability (EKVX; first compound 0.04 µM): 0.646 | relative viability (EKVX; first compound 0.1265 µM): 0.623 | relative viability (EKVX; first compound 0.4 µM): 0.679 | relative viability (EKVX; first compound 1.265 µM): 0.679 | relative viability (EKVX; first compound 4 µM): 0.64 | relative viability (HARA; first compound 0.04 µM): 0.41 | relative viability (HARA; first compound 0.1265 µM): 0.473 | relative viability (HARA; first compound 0.4 µM): 0.173 | relative viability (HARA; first compound 1.265 µM): 0.246 | relative viability (HARA; first compound 4 µM): 0.34 | relative viability (HOP-62; first compound 0.04 µM): 0.792 | relative viability (HOP-62; first compound 0.1265 µM): 0.618 | relative viability (HOP-62; first compound 0.4 µM): 0.603 | relative viability (HOP-62; first compound 1.265 µM): 0.695 | relative viability (HOP-62; first compound 4 µM): 0.681 | relative viability (NCI-H1355; first compound 0.04 µM): 0.792 | relative viability (NCI-H1355; first compound 0.1265 µM): 0.745 | relative viability (NCI-H1355; first compound 0.4 µM): 0.767 | relative viability (NCI-H1355; first compound 1.265 µM): 0.578 | relative viability (NCI-H1355; first compound 4 µM): 0.597 | relative viability (NCI-H1395; first compound 0.04 µM): 0.381 | relative viability (NCI-H1395; first compound 0.1265 µM): 0.381 | relative viability (NCI-H1395; first compound 0.4 µM): 0.389 | relative viability (NCI-H1395; first compound 4 µM): 0.394 | relative viability (NCI-H1734; first compound 0.04 µM): 0.534 | relative viability (NCI-H1734; first compound 0.1265 µM): 0.484 | relative viability (NCI-H1734; first compound 0.4 µM): 0.537 | relative viability (NCI-H1734; first compound 1.265 µM): 0.536 | relative viability (NCI-H1734; first compound 4 µM): 0.528 | relative viability (NCI-H1755; first compound 0.04 µM): 0.451 | relative viability (NCI-H1755; first compound 0.1265 µM): 0.406 | relative viability (NCI-H1755; first compound 0.4 µM): 0.489 | relative viability (NCI-H1755; first compound 1.265 µM): 0.418 | relative viability (NCI-H1755; first compound 4 µM): 0.419 | relative viability (NCI-H1793; first compound 0.04 µM): 0.518 | relative viability (NCI-H1793; first compound 0.1265 µM): 0.311 | relative viability (NCI-H1793; first compound 0.4 µM): 0.714 | relative viability (NCI-H1793; first compound 1.265 µM): 0.243 | relative viability (NCI-H1793; first compound 4 µM): 0.286 | relative viability (NCI-H1993; first compound 0.04 µM): 0.4 | relative viability (NCI-H1993; first compound 0.1265 µM): 0.934 | relative viability (NCI-H1993; first compound 0.4 µM): 0.728 | relative viability (NCI-H1993; first compound 1.265 µM): 0.713 | relative viability (NCI-H1993; first compound 4 µM): 0.737 | relative viability (NCI-H2170; first compound 0.04 µM): 0.988 | relative viability (NCI-H2170; first compound 0.1265 µM): 0.77 | relative viability (NCI-H2170; first compound 0.4 µM): 0.892 | relative viability (NCI-H2170; first compound 1.265 µM): 0.837 | relative viability (NCI-H2170; first compound 4 µM): 0.785 | relative viability (NCI-H2342; first compound 0.04 µM): 0.453 | relative viability (NCI-H2342; first compound 0.1265 µM): 0.537 | relative viability (NCI-H2342; first compound 0.4 µM): 0.378 | relative viability (NCI-H2342; first compound 1.265 µM): 0.484 | relative viability (NCI-H2342; first compound 4 µM): 0.45 | relative viability (NCI-H2347; first compound 0.04 µM): 0.776 | relative viability (NCI-H2347; first compound 0.1265 µM): 0.932 | relative viability (NCI-H2347; first compound 0.4 µM): 0.901 | relative viability (NCI-H2347; first compound 1.265 µM): 0.521 | relative viability (NCI-H2347; first compound 4 µM): 0.769 | relative viability (NCI-H322M; first compound 0.04 µM): 0.543 | relative viability (NCI-H322M; first compound 0.1265 µM): 0.527 | relative viability (NCI-H322M; first compound 0.4 µM): 0.503 | relative viability (NCI-H322M; first compound 4 µM): 0.47 | relative viability (NCI-H358; first compound 0.04 µM): 0.694 | relative viability (NCI-H358; first compound 0.1265 µM): 0.441 | relative viability (NCI-H358; first compound 0.4 µM): 0.57 | relative viability (NCI-H358; first compound 1.265 µM): 0.446 | relative viability (NCI-H358; first compound 4 µM): 0.481 | relative viability (NCI-H522; first compound 0.04 µM): 0.848 | relative viability (NCI-H522; first compound 0.1265 µM): 0.794 | relative viability (NCI-H522; first compound 0.4 µM): 0.777 | relative viability (NCI-H522; first compound 1.265 µM): 0.74 | relative viability (NCI-H522; first compound 4 µM): 0.808 | relative viability (NCI-H647; first compound 0.04 µM): 0.489 | relative viability (NCI-H647; first compound 0.1265 µM): 0.45 | relative viability (NCI-H647; first compound 0.4 µM): 0.395 | relative viability (NCI-H647; first compound 1.265 µM): 0.391 | relative viability (NCI-H647; first compound 4 µM): 0.46 | relative viability (NCI-H838; first compound 0.04 µM): 1.07 | relative viability (NCI-H838; first compound 0.1265 µM): 0.882 | relative viability (NCI-H838; first compound 0.4 µM): 1 | relative viability (NCI-H838; first compound 1.265 µM): 0.867 | relative viability (NCI-H838; first compound 4 µM): 0.87 | relative viability (PC-14; first compound 0.04 µM): 0.31 | relative viability (PC-14; first compound 0.1265 µM): 0.332 | relative viability (PC-14; first compound 1.265 µM): 0.26 | relative viability (PC-14; first compound 4 µM): 0.318
